Source: ChEMBL document CHEMBL4321872, “Engineering a Potent, Long-Acting, and Periphery-Restricted Oxytocin Receptor Agonist with Anorexigenic and Body Weight Reducing Effects” (J Med Chem, 2020)
Active and inactive are the calls of the source. The calls are words filed in the database; no cut-off is given here. Numbered stars: 1 amine (or outer) side, 2 acyl side, 3 side chain; on linkers, the order of the positions; unused ones are H or OH. Bridge positions count the residues as written; N and C are the ends. Square brackets hold non-standard residues; d marks the D form. Peptide text beside a SMILES is read from it. * marks the point of attachment. X4 = O=C(O)CCCCCCCCCCCCCCCCC(=O)NCCOCCOCCOCCNC(=O)C*; X3 = CCCCCCCCCCCCCC(=O)NCCOCCOCCNC(=O)C*; X2 = O=C(CCC[*:2])[*:1]; Sar = CNCC(=O)O; Cam = NC(=O)C*

Legend:
Oxytocin receptor [1] = target: T1, Oxytocin receptor (Homo sapiens, UniProt P30559); experiment: Agonist activity at recombinant human Gi/Go-coupled OTR expressed in CHOK1 cells assessed as induction of beta-arrestin recruitment measured after 90 mins in presence of 10% FBS by pathhunter assay; type: cell-based
T1 sequence (P30559 whole entry): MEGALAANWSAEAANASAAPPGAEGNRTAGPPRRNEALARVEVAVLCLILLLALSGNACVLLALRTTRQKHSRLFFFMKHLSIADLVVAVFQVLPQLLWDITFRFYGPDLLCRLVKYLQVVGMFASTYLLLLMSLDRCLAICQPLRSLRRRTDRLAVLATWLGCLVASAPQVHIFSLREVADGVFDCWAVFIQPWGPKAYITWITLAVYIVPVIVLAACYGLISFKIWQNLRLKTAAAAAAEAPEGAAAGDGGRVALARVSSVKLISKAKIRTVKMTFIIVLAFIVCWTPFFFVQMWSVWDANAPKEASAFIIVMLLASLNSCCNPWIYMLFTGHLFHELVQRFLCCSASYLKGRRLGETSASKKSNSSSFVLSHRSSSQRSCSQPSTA

Oxytocin receptor [2] = target: T1, Oxytocin receptor; experiment: Agonist activity at recombinant human Gi/Go-coupled OTR expressed in CHOK1 cells assessed as induction of beta-arrestin recruitment measured after 90 mins in absence of 10% FBS by pathhunter assay; type: cell-based
[3] = target: T2, Oxytocin receptor (Homo sapiens) (UniProt P30559); experiment: Agonist activity at recombinant human Gi/Go-coupled OTR expressed in CHOK1 cells assessed as induction of beta-arrestin recruitment measured after 90 mins in absence of 10% FBS by pathhunter assay relative to oxytocin; type: cell-based
T2 sequence (whole entry): T1 sequence (P30559 whole entry)

[4] = target: T2, Oxytocin receptor (Homo sapiens); experiment: Ratio of EC50 for agonist activity at recombinant human Gi/Go-coupled OTR expressed in CHOK1 cells in presence of 10% FBS to EC50 for agonist activity at recombinant human Gi/Go-coupled OTR expressed in CHOK1 cells in absence of 10% FBS; type: cell-based
[5] = Aqueous solubility of the compound; type: physicochemical; settings: buffer
[6] = target: T2, Oxytocin receptor (Homo sapiens); experiment: Agonist activity at recombinant human Gi/Go-coupled OTR expressed in CHOK1 cells assessed as induction of beta-arrestin recruitment measured after 90 mins in presence of 10% FBS by pathhunter assay relative to oxytocin; type: cell-based
Mus musculus [7] = experiment: Anorexigenic activity in C57BL/6J mouse assessed as reduction in food intake at 0.5 mg/kg, sc measured at 3 hrs interval for 6 hrs; type: functional, organism-based
Mus musculus [8] = experiment: Anorexigenic activity in C57BL/6J mouse assessed as reduction in food intake at 0.5 mg/kg, sc measured at 24 hrs post-dose; type: functional, organism-based
Mus musculus [9] = experiment: Anorexigenic activity in C57BL/6J mouse assessed as reduction in body weight at 0.5 mg/kg, sc measured daily for 2 days; type: functional, organism-based
Mus musculus [10] = experiment: Anorexigenic activity in C57BL/6J mouse […] model assessed as reduction in food intake at 0.1 mg/kg, sc administered once daily for 9 days and measured daily during compound dosing; type: functional, organism-based
Mus musculus [11] = experiment: Anorexigenic activity in C57BL/6J mouse […] model assessed as reduction in body weight at 0.1 mg/kg, sc administered once daily for 9 days and measured daily during compound dosing; type: functional, organism-based
[12] = Half life in C57BL/6J mouse; type: ADME; settings: in vivo

In the case of `CCCCCCCCCCCCCC(=O)NCCOCCOCCNC(=O)CSC[C@H](NC(=O)CNC(=O)[C@@H]1CSCCCC(=O)N[C@@H](Cc2ccc(O)cc2)C(=O)N[C@@H]([C@@H](C)CC)C(=O)N[C@@H](CCC(N)=O)C(=O)N[C@@H](CC(N)=O)C(=O)N1)C(=O)NCC(N)=O` (YIQNCGC(X3)G-NH2; linker N-5 via X2), the EC50 (Oxytocin receptor [1]) is reported as 18.9 nM, the EC50 (Oxytocin receptor [2]) is reported as 5.27 nM and the %max [3] is reported as 116%. The Ratio EC50 [4] was 3.6 and the solubility [5] was “Soluble”.
For `CCCCCCCCCCCCCC(=O)NCCOCCOCCNC(=O)CSC[C@H](NC(=O)CNC(=O)[C@@H]1CSCCCC(=O)N[C@@H](Cc2ccc(O)cc2)C(=O)N[C@@H]([C@@H](C)CC)C(=O)N[C@@H](CCC(N)=O)C(=O)N[C@@H](CC(N)=O)C(=O)N1)C(=O)N(C)CC(N)=O` (YIQNCGC(X3)[Sar]-NH2; linker N-5 via X2), the EC50 (Oxytocin receptor [1]) was 56.9 nM, the EC50 (Oxytocin receptor [2]) was 10.5 nM and the %max [3] was 57%. For the same compound, the Ratio EC50 [4] was 5.4.
With `CC[C@H](C)[C@@H]1NC(=O)[C@H](Cc2ccc(O)cc2)NC(=O)CCCSC[C@@H](C(=O)NCC(=O)N[C@@H](CSCC(=O)NCCOCCOCCOCCNC(=O)CCCCCCCCCCCCCCCCC(=O)O)C(=O)NCC(N)=O)NC(=O)[C@H](CC(N)=O)NC(=O)[C@H](CCC(N)=O)NC1=O` (YIQNCGC(X4)G-NH2; linker N-5 via X2) the EC50 (Oxytocin receptor [1]) was 173 nM, the EC50 (Oxytocin receptor [2]) was 3.41 nM and the %max [3] was 117%. The Ratio EC50 [4] was 50.9 and the solubility [5] was “Soluble”.
For `CC[C@H](C)[C@@H]1NC(=O)[C@H](Cc2ccc(O)cc2)NC(=O)CCCSC[C@@H](C(=O)NCC(=O)N[C@@H](CSCC(=O)NCCOCCOCCOCCNC(=O)CCCCCCCCCCCCCCCCC(=O)O)C(=O)N(C)CC(N)=O)NC(=O)[C@H](CC(N)=O)NC(=O)[C@H](CCC(N)=O)NC1=O` (YIQNCGC(X4)[Sar]-NH2; linker N-5 via X2), the EC50 (Oxytocin receptor [1]) was 831 nM, the EC50 (Oxytocin receptor [2]) was 52.4 nM and the %max [3] was 34%. The Ratio EC50 [4] was 15.9.
Compound `CC[C@H](C)[C@@H]1NC(=O)[C@H](Cc2ccc(O)cc2)NC(=O)CCCSC[C@@H](C(=O)N2CCC[C@H]2C(=O)N[C@@H](CSCC(N)=O)C(=O)NCC(N)=O)NC(=O)[C@H](CC(N)=O)NC(=O)[C@H](CCC(N)=O)NC1=O` (YIQNCPC(Cam)G-NH2; linker N-5 via X2) has an EC50 (Oxytocin receptor [1]) of 4.8 nM and a %max [6] of 97%.
Compound `CCCCCCCCCCCCCC(=O)NCCOCCOCCNC(=O)CSC[C@H](NC(=O)[C@@H]1CCCN1C(=O)[C@@H]1CSCCCC(=O)N[C@@H](Cc2ccc(O)cc2)C(=O)N[C@@H]([C@@H](C)CC)C(=O)N[C@@H](CCC(N)=O)C(=O)N[C@@H](CC(N)=O)C(=O)N1)C(=O)NCC(N)=O` (YIQNCPC(X3)G-NH2; linker N-5 via X2) has an EC50 (Oxytocin receptor [1]) of 5.28 nM and a %max [6] of 70%.
In the case of `CC[C@H](C)[C@@H]1NC(=O)[C@H](Cc2ccc(OC)cc2)NC(=O)CCCSC[C@@H](C(=O)N2CCC[C@H]2C(=O)N[C@@H](CC(C)C)C(=O)NCC(N)=O)NC(=O)[C@H](CC(N)=O)NC(=O)[C@H](CCC(N)=O)NC1=O` [CARBETOCIN] (Y(Me)IQNCPLG-NH2; linker N-5 via X2), the Activity (Mus musculus [7]) is reported as “Active”, the Activity (Mus musculus [8]) is reported as “inactive” and the Activity (Mus musculus [9]) is reported as “inactive”. The Activity (Mus musculus [10]) was “Active”, the Activity (Mus musculus [11]) was “Active” and the half-life [12] was 40 min.
With `CC[C@H](C)[C@@H]1NC(=O)[C@H](Cc2ccc(O)cc2)NC(=O)[C@@H](N)CSSC[C@@H](C(=O)N2CCC[C@H]2C(=O)N[C@@H](CC(C)C)C(=O)NCC(N)=O)NC(=O)[C@H](CC(N)=O)NC(=O)[C@H](CCC(N)=O)NC1=O` [OXYTOCIN] the half-life [12] was 2 to 3 min.
